In the experiment the target is NAD-dependent protein deacylase sirtuin-5, mitochondrial (Homo sapiens) (UniProt Q9NXA8). The experiment can be described thus: ligand binding to SIRT5 via aggregation temperature – biophysical, StarGazer light scattering (AID 458). The settings on record: SIRT5 thermal stabilisation, at 1 mM, protein 12 µM, stronger effect = higher value.

Among the data in PubChem BioAssay AID458 are Tagg shift values, retold here.

Chain of NAD-dependent protein deacylase sirtuin-5, mitochondrial (Homo sapiens) (Q9NXA8 whole entry, looked up): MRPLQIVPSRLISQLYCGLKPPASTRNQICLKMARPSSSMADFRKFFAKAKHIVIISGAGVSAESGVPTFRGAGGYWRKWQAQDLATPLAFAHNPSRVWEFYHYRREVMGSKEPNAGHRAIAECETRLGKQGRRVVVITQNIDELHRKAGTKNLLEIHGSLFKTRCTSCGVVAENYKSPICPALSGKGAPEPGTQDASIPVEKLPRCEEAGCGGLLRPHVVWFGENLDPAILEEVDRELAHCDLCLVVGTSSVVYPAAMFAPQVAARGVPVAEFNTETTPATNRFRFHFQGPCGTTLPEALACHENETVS

In the case of `CC(/C=C/C(=O)NO)=C\[C@@H](C)C(=O)c1ccc(N(C)C)cc1`, the Tagg shift turned out to be 5.1 °C.
In the case of `Cc1ccc(C(=O)Nc2ccc(S(=O)(=O)O)c3cc(S(=O)(=O)O)cc(S(=O)(=O)O)c23)cc1NC(=O)c1cccc(NC(=O)Nc2cccc(C(=O)Nc3cc(C(=O)Nc4ccc(S(=O)(=O)O)c5cc(S(=O)(=O)O)cc(S(=O)(=O)O)c45)ccc3C)c2)c1`, the Tagg shift was found to be 27 °C.
